According to patent US6068838A, “Purified multimerase” (Baxter Aktiengesellschaft, priority 1996, dated 2000):
Where two headings read alike, the source gives them in different places. Residues, ends and D or L forms follow the SMILES beside them. *: point of attachment. Cbz = O=C(OCc1ccccc1)*; CHN2 = [N-]=[N+]=C*

Experiments:
vWF-cleaving protease [1] = target: T1, vWF-cleaving protease (Homo sapiens, UniProt Q76LX8); assay: Effect of protease inhibitors on vWF degradation; format: biochemical; settings: for effect of peptidyl-diazomethylketone inhibitors on proteolytic degradation of vWF: final concentration 0.1 mM during preincubation with barium-activated protease
T1 construct: Purification of Protease from Plasma; from tissue; host or cells: plasma (fibrinogen removed before chromatography)
T1 sequence (Q76LX8 75-1427): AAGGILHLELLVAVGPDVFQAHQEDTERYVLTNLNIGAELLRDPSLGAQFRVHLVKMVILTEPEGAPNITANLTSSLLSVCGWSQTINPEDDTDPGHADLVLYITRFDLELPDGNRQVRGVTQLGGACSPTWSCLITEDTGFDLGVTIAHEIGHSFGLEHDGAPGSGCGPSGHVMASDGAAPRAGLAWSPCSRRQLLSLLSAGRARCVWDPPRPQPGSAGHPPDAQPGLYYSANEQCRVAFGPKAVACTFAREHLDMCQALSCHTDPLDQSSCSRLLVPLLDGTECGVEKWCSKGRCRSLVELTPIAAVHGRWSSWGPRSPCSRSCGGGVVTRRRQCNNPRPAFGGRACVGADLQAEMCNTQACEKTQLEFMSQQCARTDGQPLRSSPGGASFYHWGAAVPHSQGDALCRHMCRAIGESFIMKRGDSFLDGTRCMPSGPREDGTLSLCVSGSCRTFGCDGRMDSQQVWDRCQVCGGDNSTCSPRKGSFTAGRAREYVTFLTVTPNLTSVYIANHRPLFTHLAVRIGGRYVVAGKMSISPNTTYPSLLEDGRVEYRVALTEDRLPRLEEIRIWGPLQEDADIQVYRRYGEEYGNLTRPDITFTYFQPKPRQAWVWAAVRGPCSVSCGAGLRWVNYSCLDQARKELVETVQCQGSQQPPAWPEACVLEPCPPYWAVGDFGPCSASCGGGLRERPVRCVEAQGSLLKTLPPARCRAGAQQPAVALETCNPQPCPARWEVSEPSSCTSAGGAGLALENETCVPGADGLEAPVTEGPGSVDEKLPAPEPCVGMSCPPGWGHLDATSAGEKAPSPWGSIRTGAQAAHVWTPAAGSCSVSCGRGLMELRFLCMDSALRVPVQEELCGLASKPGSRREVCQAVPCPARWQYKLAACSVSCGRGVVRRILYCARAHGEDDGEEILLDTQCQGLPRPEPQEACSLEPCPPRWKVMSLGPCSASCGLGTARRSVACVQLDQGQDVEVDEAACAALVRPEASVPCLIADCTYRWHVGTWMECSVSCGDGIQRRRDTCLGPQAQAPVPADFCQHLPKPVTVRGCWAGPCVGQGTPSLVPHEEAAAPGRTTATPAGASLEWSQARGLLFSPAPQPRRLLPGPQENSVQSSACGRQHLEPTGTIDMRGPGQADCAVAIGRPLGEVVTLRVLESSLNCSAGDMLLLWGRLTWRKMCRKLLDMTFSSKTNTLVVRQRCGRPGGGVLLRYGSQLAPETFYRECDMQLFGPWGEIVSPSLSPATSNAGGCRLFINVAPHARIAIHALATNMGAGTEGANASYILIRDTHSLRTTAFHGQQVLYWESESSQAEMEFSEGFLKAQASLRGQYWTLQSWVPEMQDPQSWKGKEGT

vWF-cleaving protease [2] = target: T1, vWF-cleaving protease; assay: Influence of metal ions on the activity of the vWF-cleaving protease; format: biochemical; settings: 95 μl protease preincubated 15 minutes at 37° C. with 5 μl of 0.2 M salt solution
plasmin = target: T2, plasmin (Homo sapiens, UniProt P00747); assay: Degradation of vWF with plasmin with and without inhibitors; format: biochemical; settings: for effect of inhibitor on plasmin-induced reduction of high multimers of cryoprecipitate: incubation for more than 8 hours; for effect of inhibitor on plasmin degradation of r-vWF: plasmin reduced to 1:10, about 20 hours
T2 construct: plasmin being diluted to 0.2 U/ml in 20 mM TBS buffer, pH 8.3
T2 sequence (P00747 581-810): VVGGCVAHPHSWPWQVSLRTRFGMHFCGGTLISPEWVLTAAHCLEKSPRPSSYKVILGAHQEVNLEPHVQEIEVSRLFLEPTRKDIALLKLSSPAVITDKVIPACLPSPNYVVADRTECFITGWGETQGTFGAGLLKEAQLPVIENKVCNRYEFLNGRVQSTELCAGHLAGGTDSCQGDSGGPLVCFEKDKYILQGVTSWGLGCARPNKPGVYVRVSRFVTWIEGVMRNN
T2 sequence (P00747 97-580): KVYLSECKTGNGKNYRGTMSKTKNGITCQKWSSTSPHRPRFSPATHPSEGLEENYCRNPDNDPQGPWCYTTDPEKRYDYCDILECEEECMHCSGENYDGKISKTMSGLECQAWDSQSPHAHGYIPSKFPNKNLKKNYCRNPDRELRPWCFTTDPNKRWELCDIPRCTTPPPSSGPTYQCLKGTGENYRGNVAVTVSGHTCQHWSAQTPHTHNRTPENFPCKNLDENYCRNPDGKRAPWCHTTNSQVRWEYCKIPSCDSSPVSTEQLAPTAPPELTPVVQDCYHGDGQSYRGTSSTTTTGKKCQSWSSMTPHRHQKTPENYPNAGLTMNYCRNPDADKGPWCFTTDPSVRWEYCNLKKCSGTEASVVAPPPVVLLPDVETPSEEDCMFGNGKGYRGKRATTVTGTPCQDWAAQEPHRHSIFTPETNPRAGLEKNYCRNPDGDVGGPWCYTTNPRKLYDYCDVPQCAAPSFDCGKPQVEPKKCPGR
Experimental: (§1) Analysis of the r-vWF and its proteolytic degradation products was performed on 1% and 2% agarose gels, also according to the method of Ruggeri et al. (Blood 57 (1981), 1140-1143). The vWF multimers were made visible by immunoenzymatic staining according to Aihara et al. (Thromb. Haemostas. 55 (1986), 263-267). A rabbit-anti-von Willebrand factor-antiserum (from Dakopatts, Glostrup, Denmark) was used as the primary antibody, and an alkaline phosphatase-conjugated, affinity-purified goat-anti-rabbit IgG H+L-antibody (from Axell Accurate Chemical and Scientific Corp, Westburg, N.Y.) served as the secondary antibody. Staining of the protein bands was effected by means of the nitroblue tetrazolium/bromochloro-indolyl-phosphate substrate system.

vWF protease = target: T3, vWF protease (Homo sapiens, UniProt Q76LX8); assay: Degradation of vWF by the vWF protease in the presence of aprotinin or PPACK; format: biochemical; settings: for degradation of recombinant vWF by the protease in the presence of inhibitor: inhibitor concentration at which no protease activity detected with a chromogenic substrate of plasmin
T3 construct: the preparation prepared according to the invention with the vWF-specific protease; from tissue
T3 sequence (Q76LX8 75-1427): T1 sequence (Q76LX8 75-1427)
Experimental: The concentration of aprotinin and PPACK was chosen such that no protease activity could be detected with a chromogenic substrate of plasmin.
In this experiment, the degradation products of the recombinant vWF with the protease according to the invention were the satellite bands developed and the central bands. Actually all bands were very similar to plasmatic vWF (FIG. 14 (panel C)).
as §1

[3] = Incubation of r-vWF in vWF-deficient human plasma; format: in vitro ADME
Experimental: Further tests investigated whether a proteolytic degradation of r-vWF took place during incubation with human plasma (cf. FIG. 18). For this, the r-vWF preparation was mixed with equal volumes of a vWF-deficient plasma (cf. FIG. 18 (panel A)) and incubated for 48 hours, samples being taken at various times. No change of the r-vWF over time could be detected.
as §1

Compound: CC(=O)N[C@@H](CC(C)C)C(=O)N[C@@H](CC(C)C)C(=O)N[C@H](C=O)CCCNC(=N)N [leupeptin]
- inhibition of the barium-preincubated protease (vWF degradation) (vWF-cleaving protease [1]): no inhibition

Compound: O=S(=O)(F)Cc1ccccc1 [PMSF, phenylmethylsulfonyl fluoride]
- inhibition of the barium-preincubated protease (vWF degradation) (vWF-cleaving protease [1]): no inhibition

Compound: [Ca+2].[Cl-].[Cl-] [Ca^2+, CaCl2]
- activation of the protease by metal ions (vWF-cleaving protease [2]): substantial activation

Compound: [Cl][Ni][Cl] [Ni^2+, NiCl2]
- activation of the protease by metal ions (vWF-cleaving protease [2]): no activation

Compound: [Cl-].[Cl-].[Zn+2] [Zn^2+, ZnCl2]
- activation of the protease by metal ions (vWF-cleaving protease [2]): no activation

Compound: [Cl-].[Cl-].[Sr+2] [Sr^2+, SrCl2]
- activation of the protease by metal ions (vWF-cleaving protease [2]): substantial activation

Compound: [N-]=[N+]=CC(=O)[C@H](Cc1ccccc1)NC(=O)[C@H](Cc1ccccc1)NC(=O)OCc1ccccc1 [Z-Phe-Phe-CH2, Z-Phe-Phe-CHN2] (Cbz-Phe-Phe-CHN2)
- effect of peptidyl-diazomethylketone inhibitors on proteolytic degradation of vWF (vWF-cleaving protease [1]): impaired the proteolytic degradation of vWF

Compound: O=S(=O)([O-])[O-].[Cu+2] [Cu^2+, CuSO4]
- activation of the protease by metal ions (vWF-cleaving protease [2]): no activation

Compound: NC(=O)CI [IAA, iodoncetamide]
- inhibition of the barium-preincubated protease (vWF degradation by SDS agarose electrophoresis and immunoblotting) (vWF-cleaving protease [1]): did not result in protease inhibition

Compound: aprotinin
- effect of inhibitor on plasmin-induced reduction of high multimers of cryoprecipitate (plasmin): prevented
- effect of inhibitor on plasmin degradation of r-vWF (plasmin): prevented
- inhibition of the barium-preincubated protease (vWF degradation) (vWF-cleaving protease [1]): no inhibition
- degradation of cryoprecipitate vWF by vWF protease on addition of inhibitor (vWF protease): could not be prevented
- degradation of recombinant vWF by the protease in the presence of inhibitor (vWF protease): degraded identically

Compound: N=C(N)NCCC[C@H](NC(=O)[C@@H]1CCCN1C(=O)[C@H](N)Cc1ccccc1)C(=O)CCl [PPACK, Diphenylalanylprolyl arginine-chloromethylketone]
- effect of inhibitor on plasmin-induced reduction of high multimers of cryoprecipitate (plasmin): prevented
- effect of inhibitor on plasmin degradation of r-vWF (plasmin): prevented
- degradation of cryoprecipitate vWF by vWF protease on addition of inhibitor (vWF protease): could not be prevented
- degradation of recombinant vWF by the protease in the presence of inhibitor (vWF protease): degraded identically

Compound: Cc1ccc(S(=O)(=O)N[C@@H](Cc2ccccc2)C(=O)CCl)cc1 [TPCK, N-α-p-tosyl-L-phenylalanine-chloromethylketone]
- inhibition of the barium-preincubated protease (vWF degradation) (vWF-cleaving protease [1]; inhibitor 1 mM, 15 minutes preincubation at 37° C.): no inhibition

Compound: O=S(=O)([O-])[O-].[Co+2] [Co^2+, CoSO4]
- activation of the protease by metal ions (vWF-cleaving protease [2]): no activation

Compound: O=C(O)CN(CCOCCOCCN(CC(=O)O)CC(=O)O)CC(=O)O [ESTA, EGTA]
- inhibition of the barium-preincubated protease (vWF degradation by SDS agarose electrophoresis and immunoblotting) (vWF-cleaving protease [1]; inhibitor final concentration 10 mM, 15 minutes preincubation at 37° C.): inhibit the barium-preincubated protease completely

Compound: O=C(O)CN(CCN(CC(=O)O)CC(=O)O)CC(=O)O [EDTA]
- inhibition of the barium-preincubated protease (vWF degradation by SDS agarose electrophoresis and immunoblotting) (vWF-cleaving protease [1]): inhibit the barium-preincubated protease completely

Compound: [Ba+2].[Cl-].[Cl-] [Ba^2+, BaCl2]
- activation of the protease by metal ions (vWF-cleaving protease [2]): substantial activation

Compound: CC(C)[C@H](NC(=O)OCc1ccccc1)C(=O)N[C@H](C(=O)N[C@@H](Cc1ccc(O)cc1)C(=O)C=[N+]=[N-])C(C)C [Z-Val-Val-Tyr-CHN2] (Cbz-Val-Val-Tyr-CHN2)
- effect of peptidyl-diazomethylketone inhibitors on proteolytic degradation of vWF (vWF-cleaving protease [1]): impaired the proteolytic degradation of vWF

Compound: CCN1C(=O)C=CC1=O [NEM, N-ethylmaleimide]
- inhibition of the barium-preincubated protease (vWF degradation by SDS agarose electrophoresis and immunoblotting) (vWF-cleaving protease [1]): did not result in protease inhibition
- protease inhibition with inhibitor also incorporated into the dialysis solution (vWF-cleaving protease [1]): partial protease inhibition

Compound: CC(C)C[C@H](NC(=O)OCc1ccccc1)C(=O)N[C@@H](CC(C)C)C(=O)N[C@@H](Cc1ccc(O)cc1)C(=O)C=[N+]=[N-] [Z-Leu-Leu-Tyr-CHN2] (Cbz-Leu-Leu-Tyr-CHN2)
- effect of peptidyl-diazomethylketone inhibitors on proteolytic degradation of vWF (vWF-cleaving protease [1]): active in the presence

Compound: [Cl][Mn][Cl] [Mn^2+, MnCl2]
- activation of the protease by metal ions (vWF-cleaving protease [2]): no activation

Compound: [Cl-].[Cl-].[Mg+2] [Mg^2+, MgCl2]
- activation of the protease by metal ions (vWF-cleaving protease [2]): slight activation

Compound: Cc1ccc(S(=O)(=O)N[C@@H](CCCCN)C(=O)CCl)cc1 [TLCK, N-α-p-tosyl-L-lysine-chloromethylketone]
- inhibition of the barium-preincubated protease (vWF degradation) (vWF-cleaving protease [1]): no inhibition

Compound: CC(=O)[O-].CC(=O)[O-].[Cd+2] [Cd^2+, Cd(CH3 COO)2]
- activation of the protease by metal ions (vWF-cleaving protease [2]): no activation

Compound: r-vWF: Recombinant vWF factor produced according to FEBS-Letters 375, 259-262 (1995), singlet structure
- change of r-vWF structure in control preparation ([3]; equal length of time at 37° C. in buffer media): no change of structure
- change of r-vWF over time ([3]; mixed with equal volume of vWF-deficient plasma, incubated for 48 hours): No change

Compound: O=C(O)CC(O)(CC(=O)O)C(=O)O [citrate, Na3 -citrate]
- inhibition of the barium-preincubated protease (vWF degradation by SDS agarose electrophoresis and immunoblotting) (vWF-cleaving protease [1]): partial inhibition
